Assay results as given in ChEMBL document CHEMBL1152157, “Total synthesis and biological evaluation of potent analogues of dictyostatin: modification of the C2-C6 dienoate region” (Bioorg Med Chem Lett, 2008).
The source made the active and inactive calls. The rule behind the calls is not given here.

Assays:
Assay type in all cases: functional, cell-based
[1] = system: NCI/ADR-RES; experiment: Cytotoxicity against taxol-resistant human NCI/ADR-RES cells after 72 hrs by MTT assay
[2] = system: PANC-1; experiment: Cytotoxicity against taxol-sensitive human PANC1 cells after 72 hrs by MTT assay; settings: PANC-1, 72 h
[3] = system: PANC-1; experiment: Induction of microtubule stabilization in human PANC1 cells assessed as formation of dense intracellular microtubule bundles
[4] = system: PANC-1; experiment: Cell cycle arrest in human PANC1 cells by accumulation in G2/M phase
[5] = system: DLD-1; experiment: Cytotoxicity against taxol-sensitive human DLD1 cells after 72 hrs by MTT assay; settings: DLD-1, 72 h
[6] = system: ASPC1; experiment: Cytotoxicity against taxol-sensitive human AsPC1 cells after 72 hrs by MTT assay; settings: ASPC1, 72 h

C=C/C=C\[C@H](C)[C@@H]1OC(=O)CC/C=C/[C@@H](C)[C@@H](O)C[C@H](O)/C=C\[C@H](C)[C@H](O)[C@@H](C)C[C@@H](C)CC[C@@H](O)[C@@H]1C
IC50 [1]: 66 nM | IC50 [2]: 42 nM | Activity [3]: Active | Activity [4]: Active | IC50 [5]: 22 nM | IC50 [6]: 94 nM

CC(=O)O[C@H]1C(=O)[C@@]2(C)[C@H]([C@H](OC(=O)c3ccccc3)[C@]3(O)C[C@H](OC(=O)[C@H](O)[C@@H](NC(=O)c4ccccc4)c4ccccc4)C(C)=C1C3(C)C)[C@]1(OC(C)=O)CO[C@@H]1C[C@@H]2O [PACLITAXEL]
IC50 [1]: 1300 nM | IC50 [2]: 9.9 nM | IC50 [5]: 22 nM | IC50 [6]: 89 nM

C=C/C=C\[C@H](C)[C@@H]1OC(=O)/C=C\C=C\[C@@H](C)[C@@H](O)C[C@H](O)/C=C\[C@H](C)[C@H](O)[C@@H](C)C[C@@H](C)CC[C@@H](O)[C@@H]1C [DICTYOSTATIN]
IC50 [1]: 6.6 nM | IC50 [2]: 4.2 nM | IC50 [5]: 2.2 nM | IC50 [6]: 6.2 nM

C=C/C=C\[C@H](C)[C@@H]1OC(=O)/C=C\C=C\C[C@@H](O)C[C@H](O)/C=C\[C@H](C)[C@H](O)[C@@H](C)C[C@@H](C)CC[C@@H](O)[C@@H]1C
IC50 [1]: 43 nM | IC50 [2]: 17 nM | Activity [3]: Active | Activity [4]: Active | IC50 [5]: 8.1 nM | IC50 [6]: 56 nM

C=C/C=C\[C@H](C)[C@@H]1OC(=O)CCCC[C@@H](C)[C@@H](O)C[C@H](O)/C=C\[C@H](C)[C@H](O)[C@@H](C)C[C@@H](C)CC[C@@H](O)[C@@H]1C
IC50 [1]: 130 nM | IC50 [2]: 64 nM | Activity [3]: Active | Activity [4]: Active | IC50 [5]: 55 nM | IC50 [6]: 120 nM

C=C/C=C\[C@H](C)[C@H](OC(N)=O)[C@@H](C)[C@H](O)[C@@H](C)C/C(C)=C\[C@H](C)[C@@H](O)[C@@H](C)/C=C\[C@@H](O)C[C@@H]1OC(=O)[C@H](C)[C@@H](O)[C@H]1C [DISERMOLIDE]
IC50 [1]: 160 nM
